Source: article PMC10482914, “Molecular architecture and electron transfer pathway of the Stn family transhydrogenase” (Nature Communications, 2023)

Experiments:
[1] = biological target: T1, StnABC complex (FMN / NAD(H) site in StnB) (Sporomusa ovata, UniProt A0A0U1KYM9); test: spectrophotometric, […] nm; type: biochemical; details: 0.25 mM NADH, 0.5 mM NADP+, 30 uM reduced ferredoxin; pH 8, 50 C
T1 construct: gene SpAn4DRAFT_2936; same complex as P1, other site; native purification from S. ovata, untagged; tetramer of StnABC heterotrimers; mildly BS3-crosslinked for cryo-EM; with Electron-bifurcating transhydrogenase subunit StnA (HydC / NuoE-like, thioredoxin-like [2Fe-2S] subunit)
T1 sequence (A0A0U1KYM9 1-584): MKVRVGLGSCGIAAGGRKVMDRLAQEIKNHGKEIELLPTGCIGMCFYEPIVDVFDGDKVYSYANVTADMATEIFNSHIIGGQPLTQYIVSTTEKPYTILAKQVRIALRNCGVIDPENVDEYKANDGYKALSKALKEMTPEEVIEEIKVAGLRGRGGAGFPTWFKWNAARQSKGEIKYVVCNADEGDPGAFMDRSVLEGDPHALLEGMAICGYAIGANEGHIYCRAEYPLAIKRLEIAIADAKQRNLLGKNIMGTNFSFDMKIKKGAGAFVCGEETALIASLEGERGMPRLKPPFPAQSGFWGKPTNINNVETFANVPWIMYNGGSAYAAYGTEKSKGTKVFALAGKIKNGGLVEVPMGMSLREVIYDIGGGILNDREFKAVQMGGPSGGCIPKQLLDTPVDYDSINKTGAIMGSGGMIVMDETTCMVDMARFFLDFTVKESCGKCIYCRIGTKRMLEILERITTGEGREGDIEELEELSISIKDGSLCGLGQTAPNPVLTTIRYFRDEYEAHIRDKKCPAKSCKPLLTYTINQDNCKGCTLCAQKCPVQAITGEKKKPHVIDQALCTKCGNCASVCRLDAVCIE
T1 sequence (A0A0U1KYW8 1-178 partner): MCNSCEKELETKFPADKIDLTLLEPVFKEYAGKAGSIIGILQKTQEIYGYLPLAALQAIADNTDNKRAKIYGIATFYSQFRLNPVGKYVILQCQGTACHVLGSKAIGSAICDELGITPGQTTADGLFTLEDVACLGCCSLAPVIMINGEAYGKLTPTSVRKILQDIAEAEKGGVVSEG
T1 sequence (A0A0U1KYI6 1-1172 partner): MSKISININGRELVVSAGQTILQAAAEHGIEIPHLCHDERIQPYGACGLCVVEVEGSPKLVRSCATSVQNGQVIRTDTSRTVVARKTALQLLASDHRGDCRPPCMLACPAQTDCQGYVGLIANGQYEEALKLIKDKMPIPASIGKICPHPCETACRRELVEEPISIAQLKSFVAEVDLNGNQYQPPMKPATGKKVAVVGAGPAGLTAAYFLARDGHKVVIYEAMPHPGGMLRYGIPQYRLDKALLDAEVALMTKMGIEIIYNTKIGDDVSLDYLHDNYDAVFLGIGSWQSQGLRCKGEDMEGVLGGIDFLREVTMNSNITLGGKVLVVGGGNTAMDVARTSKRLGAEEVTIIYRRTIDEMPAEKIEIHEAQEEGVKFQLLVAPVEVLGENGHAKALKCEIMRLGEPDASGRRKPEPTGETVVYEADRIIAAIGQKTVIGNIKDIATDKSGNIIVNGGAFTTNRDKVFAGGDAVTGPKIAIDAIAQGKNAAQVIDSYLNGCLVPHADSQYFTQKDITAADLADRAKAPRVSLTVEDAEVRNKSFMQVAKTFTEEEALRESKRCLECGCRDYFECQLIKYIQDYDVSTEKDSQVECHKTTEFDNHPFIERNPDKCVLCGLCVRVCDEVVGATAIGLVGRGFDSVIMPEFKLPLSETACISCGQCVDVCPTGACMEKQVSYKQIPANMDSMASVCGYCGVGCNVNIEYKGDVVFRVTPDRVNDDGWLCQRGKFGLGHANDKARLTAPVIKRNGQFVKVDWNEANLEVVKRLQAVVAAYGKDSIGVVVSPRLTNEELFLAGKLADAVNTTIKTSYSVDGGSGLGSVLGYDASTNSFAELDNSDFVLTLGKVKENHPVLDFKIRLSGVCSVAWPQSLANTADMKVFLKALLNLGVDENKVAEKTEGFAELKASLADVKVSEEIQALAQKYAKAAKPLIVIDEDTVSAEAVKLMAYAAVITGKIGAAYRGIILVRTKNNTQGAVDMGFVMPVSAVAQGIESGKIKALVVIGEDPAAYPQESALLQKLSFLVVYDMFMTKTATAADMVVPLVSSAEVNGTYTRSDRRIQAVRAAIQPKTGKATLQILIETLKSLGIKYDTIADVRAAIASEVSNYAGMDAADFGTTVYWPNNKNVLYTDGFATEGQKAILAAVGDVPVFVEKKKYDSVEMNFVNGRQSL

[2] = biological target: T2, StnABC complex (FAD / NADP(H) site in StnC) (Sporomusa ovata, UniProt A0A0U1KYI6); test: spectrophotometric, […] nm; type: biochemical; details: 0.5 mM NADP+, 0.25 mM NADH, 30 uM reduced ferredoxin; pH 8, 50 C
T2 construct: gene SpAn4DRAFT_2937; native purification from S. ovata cytoplasm, untagged; tetramer of StnABC heterotrimers (D2); StnC 1172 amino acids; mildly BS3-crosslinked for cryo-EM; with Electron-bifurcating transhydrogenase subunit StnB (HydB / NuoF-like subunit); Electron-bifurcating transhydrogenase subunit StnA (HydC / NuoE-like, thioredoxin-like [2Fe-2S] subunit)
T2 sequence (A0A0U1KYI6 1-1172): T1 sequence (A0A0U1KYI6 1-1172 partner)
T2 sequence (A0A0U1KYM9 1-584 partner): T1 sequence (A0A0U1KYM9 1-584)
T2 sequence (A0A0U1KYW8 1-178 partner): T1 sequence (A0A0U1KYW8 1-178 partner)

[3] = biological target: StnC subunit of the StnABC transhydrogenase complex from Sporomusa ovata (Sporomusa ovata); test: cryo-EM structure; single-particle cryo-EM of the natively purified StnABC complex, mildly cross-linked, anoxic; state S1 without added FMN and substrates (3.2 Å) and state S2 with 10 µM FMN, 500 µM NAD+, 30 µM Fd, 500 µM NADPH (3.0 Å); D2 symmetry

Q: With `NC(=O)C1=CN([C@@H]2O[C@H](COP(=O)(O)OP(=O)(O)OC[C@H]3O[C@@H](n4cnc5c(N)ncnc54)[C@H](O)[C@@H]3O)[C@@H](O)[C@H]2O)C=CC1` [NADH] as the compound, how does the “spectrophotometric, 340 nm” value [1] read?
A: Its value is “catalysed the Fdred and NADH-dependent reduction of NADP^+”.

Q: `NC(=O)c1ccc[n+]([C@@H]2O[C@H](COP(=O)(O)OP(=O)(O)OC[C@H]3O[C@@H](n4cnc5c(N)ncnc54)[C@H](OP(=O)(O)O)[C@@H]3O)[C@@H](O)[C@H]2O)c1` [NADP^+] was tested. Which “spectrophotometric, 340 nm” value [2] did it give?
A: Its value is “catalysed the Fdred and NADH-dependent reduction of NADP^+”.

Q: For “StnC subunit of the StnABC transhydrogenase complex from Sporomusa ovata (natural protein)”, which stoichiometry N [3] is on record?
A: The stoichiometry N was 4.
